Measurements published in patent US20230158025A1 (UNIVERSITY OF UTAH RESEARCH FOUNDATION, priority 2020, published 2023).
“And” between values parts separate entries of the source, which are not always exact repeats. Identical values can stand only once. Like-named read-outs stand apart in the source and are kept apart here.

What was measured:
[1] = PAMPA permeability; conditions: for Papp: PAMPA
[2] = target: T1, hGALK1m (Homo sapiens, UniProt P51570, E253A/K252A); assay: in vitro hGALK1 activity assay of the structure-based optimisation (Example 12, Tables 17-20); type: biochemical
T1 construct: made in house; host or cells: E. coli HMS174
Experimental: In vitro hGALK1 activity assays were performed as previously described. Liu et al., Bioorg. Med. Chem. Lett. 25(3): 721-727 (2015), which is incorporated by reference herein for the specific teachings thereof. The biochemical assay was performed by coupling the activity of recombinant human or mouse GALK1 to the Kinase-Glo Plus luminescent ATP detection kit, using ATP depletion as a measure of GALK1 turnover. Specifically, three μL/well of ATP substrate solution (35 μM ATP) in assay buffer (20 mM HEPES pH 8.0, 5 mM MgCl2, 60 mM NaCl, 1 mM DTT, 0.01% BSA final concentration) was dispensed into 1536-well assay plates (Greiner, white solid-bottom medium-binding plates). Aliquots of compound (23 nL solubilized in DMSO) were transferred to the assay plates using a Kalypsys 1536-well pintool such that 11 concentrations with 1/3 dilutions ranging from 57.4 μM-0.97 nM are tested. One μL/well of GALK-galactose solution (5 nM GALK1, 100 μM galactose) in assay buffer was then added, yielding a final reaction volume of 4 μL/well. Following a 1-hour room temperature incubation, 4 μL of Kinase-Glo Plus detection reagent was added to provide an ATP-dependent luminescent readout (final assay volume: 8 μL/well). Luminescence was detected using a ViewLux plate reader (PerkinElmer) after a 10-minute incubation, using a 1 second exposure time and 2× binning.
The in vitro hGALK1 activity assay was performed as previously described. Liu et al., Bioorg. Med. Chem. Lett. 25(3): 721-727 (2015). For the measurement of cellular Gal-1P reduction, compounds at different concentrations were added to cultured patient fibroblast at 80% confluency. After incubating the compounds for 16 hours, 10 mM galactose was added to the culture. After another 4 hours, cells were washed with cold PBS buffer 3× and harvested for gal-1P measurement, according to the previously published method. Liu et al., Bioorg. Med. Chem. Lett. 25(3): 721-727 (2015).

[3] = target: recombinant human GALK1 (Homo sapiens, UniProt P51570); assay: hGALK1 biochemical activity assay (Kinase-Glo Plus, ATP depletion)
Method in brief: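 Recombinant human or mouse GALK1 (5 nM, with 100 μM galactose, in the added enzyme solution) was run with ATP (35 μM in the substrate solution) in HEPES pH 8.0 buffer. Compounds were tested at 11 1/3-step concentrations from 57.4 μM to 0.97 nM. After 1 h at room temperature, remaining ATP was read by Kinase-Glo Plus luminescence.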

[4] = target: recombinant mouse GALK1 (Mus musculus, UniProt Q9R0N0); assay: mGALK1 biochemical activity assay (Kinase-Glo Plus, ATP depletion)
Method in brief: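 Recombinant GALK1 (5 nM) with 100 μM galactose; GALK1 turnover read as ATP depletion by Kinase-Glo Plus luminescence. Reaction ran 1 h at room temperature before detection reagent was added.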

[5] = aqueous kinetic solubility
[6] = rat microsomal stability (RLM); conditions: for half-life: rat, rat liver microsomes
[7] = ADME P: PAMPA permeability (class), Tables 17-19, class probably colour-coded, colour lost
[8] = Tables 18-19, read-out: Max Response (%)
[9] = Tables 18-20 and text of Example 12
[10] = Tables 2-15, 35 μM ATP, 100 μM galactose, 1 h, bracketed figure after some values (e.g. −1.2) is undefined and not reported, read-out: hGALK IC50
[11] = recombinant human GALK1, Kinase-Glo Plus ATP depletion, read-out: hGALK
[12] = Tables 2-15, 35 μM ATP, 100 μM galactose, 1 h, bracketed figure after some values is undefined and not reported, read-out: mGALK IC50
[13] = recombinant mouse GALK1, Kinase-Glo Plus ATP depletion, read-out: mGALK
[14] = 1 h, Table 17, read-out: Efficacy
[15] = Tables 18-19 and text of Example 12

Chain of recombinant human GALK1 (P51570 whole entry): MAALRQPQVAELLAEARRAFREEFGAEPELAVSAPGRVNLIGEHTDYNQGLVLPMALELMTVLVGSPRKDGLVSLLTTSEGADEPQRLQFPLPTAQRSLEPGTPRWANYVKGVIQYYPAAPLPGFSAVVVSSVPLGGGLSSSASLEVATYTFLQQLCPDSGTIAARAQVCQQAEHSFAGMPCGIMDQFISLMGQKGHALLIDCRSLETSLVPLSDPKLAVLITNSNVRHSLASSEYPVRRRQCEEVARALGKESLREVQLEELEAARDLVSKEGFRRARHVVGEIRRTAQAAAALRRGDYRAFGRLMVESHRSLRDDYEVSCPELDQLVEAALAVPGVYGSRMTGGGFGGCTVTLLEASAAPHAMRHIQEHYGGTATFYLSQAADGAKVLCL
Chain of recombinant mouse GALK1 (Q9R0N0 whole entry): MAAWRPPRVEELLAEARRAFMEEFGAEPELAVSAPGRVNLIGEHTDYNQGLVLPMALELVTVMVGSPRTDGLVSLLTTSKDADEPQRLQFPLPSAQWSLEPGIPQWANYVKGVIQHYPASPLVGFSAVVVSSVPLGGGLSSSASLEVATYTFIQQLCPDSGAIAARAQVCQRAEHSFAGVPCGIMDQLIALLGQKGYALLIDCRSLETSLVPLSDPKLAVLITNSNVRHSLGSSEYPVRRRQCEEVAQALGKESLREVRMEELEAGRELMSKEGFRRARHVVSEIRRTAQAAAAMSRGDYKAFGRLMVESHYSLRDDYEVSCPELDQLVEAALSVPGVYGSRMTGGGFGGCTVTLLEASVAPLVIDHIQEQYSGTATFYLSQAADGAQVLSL
T1 sequence (P51570 whole entry K252A/E253A): as the sequence (P51570 whole entry) above, with K252A, E253A counted along it

| SMILES | Papp [1, 7] | Papp ([1]; Perm. (1 × 10^−6 cm/sec)) | Emax [2, 8] | IC50 [2, 9] | fold improvement of potency (IC50) versus parent compound ([2]; increase in potency relative to the unsubstituted parent) | IC50 [3, 10] | IC50 [3, 11] | IC50 [4, 12] | IC50 [4, 13] | Sol. [5] | Metab. Stabil. (m) ([6]; microsomal half-life) | half-life [6] | Sol. ([5]; aqueous kinetic solubility) | Metab. Stabil. (m) ([6]; microsomal stability half-life) | Emax [2, 14] | IC50 [2, 15] | Perm. (1 × 10^−6 cm/sec) [1] | change of potency versus parent compound (in words) [2] | fold decrease of potency versus parent compound ([2]; loss of potency relative to the unsubstituted parent) |
| --- | --- | --- | --- | --- | --- | --- | --- | --- | --- | --- | --- | --- | --- | --- | --- | --- | --- | --- | --- |
| CC1=C(C(=O)Nc2cc(C(=O)O)ccn2)C(c2ccc(C)cc2Cl)N=C(Nc2nc3ccc(F)cc3o2)N1 (racemic) [Compound 50, 2-(4-(2-chloro-4-methylphenyl)-2-((6-fluorobenzo[d]oxazol-2-yl)amino)-6-methyl-1,4-dihydropyrimidine-5-carboxamido)isonicotinic acid] | < 10 ×10⁻⁶ cm/s | < 1.5 ×10⁻⁶ cm/s | 100% | 136 nM | 2 fold | 390 nM | 390 nM | 3060 nM | 3060 nM | 2.8 µg/mL | >30 m | < 10 min |  |  |  |  |  |  |  |
| CC1=C(C(=O)NCc2cnn(C)c2)C(c2ccc(C)cc2Cl)N=C(Nc2nc3cccc(N)c3o2)N1 (racemic) [Compound 83, 2-((7-aminobenzo[d]oxazol-2-yl)amino)-4-(2-chloro-4-methylphenyl)-6-methyl-N-((1-methyl-1H-pyrazol-4-yl)methyl)-1,4-dihydropyrimidine-5-carboxamide] |  | 25.3 ×10⁻⁶ cm/s |  | 47 nM |  | 220 nM | 220 nM | 2170 nM | 2170 nM | 4.47 µg/mL | 14.13 m |  |  |  |  |  |  |  |  |
| CCn1cc(CNC(=O)C2=C(C)NC(Nc3nc4ccc(F)c(N)c4o3)=NC2c2ccc(C)cc2Cl)cn1 (racemic) [Compound 125, 2-((7-amino-6-fluorobenzo[d]oxazol-2-yl)amino)-4-(2-chloro-4-methylphenyl)-N-((1-ethyl-1H-pyrazol-4-yl)methyl)-6-methyl-1,4-dihydropyrimidine-5-carboxamide] |  | 410 ×10⁻⁶ cm/s |  | 23 nM and 22 nM |  | 50 nM | 50 nM | 610 nM | 610 nM |  |  |  | <1 µg/mL | 14.08 m |  |  |  |  |  |
| CC1=C(C(=O)Nc2cc(C(=O)O)ccn2)C(c2ccccc2Cl)N=C(Nc2nc3ccccc3o2)N1 (racemic) [Compound 194, 2-(2-(benzo[d]oxazol-2-ylamino)-4-(2-chlorophenyl)-6-methyl-1,4-dihydropyrimidine-5-carboxamido)isonicotinic acid] | < 10 ×10⁻⁶ cm/s | < 1 ×10⁻⁶ cm/s |  | 970 nM |  | 1080 nM | 1080 nM | 6850 nM | 6850 nM |  |  | < 10 min | >74 µg/mL | >30 m | 88% |  |  |  |  |
| CC1=C(C(=O)NCc2cn(C)cn2)C(c2ccccc2Cl)N=C(Nc2nc3ccccc3o2)N1 (racemic) [Compound 233, 2-(benzo[d]oxazol-2-ylamino)-4-(2-chlorophenyl)-6-methyl-N-((1-methyl-1H-imidazol-4-yl)methyl)-1,4-dihydropyrimidine-5-carboxamide] | < 10 ×10⁻⁶ cm/s | 868 ×10⁻⁶ cm/s |  |  |  | 1090 nM | 1090 nM | 7690 nM | 7690 nM |  |  | < 10 min | 26.6 µg/mL | 14.56 m | 90% | 770 nM |  |  |  |
| CC1=C(C(=O)Nc2cc(C(=O)O)ccn2)C(c2ccccc2Cl)N=C(Nc2nc3cc(C)ccc3o2)N1 (stereo not drawn) [Compound 4, 2-(4-(2-chlorophenyl)-6-methyl-2-((5-methylbenzo[d]oxazol-2-yl)amino)-1,4-dihydropyrimidine-5-carboxamido)isonicotinic acid] | < 10 ×10⁻⁶ cm/s |  | 100% | 611 nM |  | 1370 nM |  | 3060 nM | 3060 nM | <1 µg/mL | >30 m | < 10 min |  |  |  |  | <1 1 × 10^−6 cm/sec | slightly improved the potency |  |
| COc1ccc2oc(NC3=NC(c4ccccc4Cl)C(C(=O)Nc4cc(C(=O)O)ccn4)=C(C)N3)nc2c1 (stereo not drawn) [Compound 5, 2-(4-(2-chlorophenyl)-2-((5-methoxybenzo[d]oxazol-2-yl)amino)-6-methyl-1,4-dihydropyrimidine-5-carboxamido)isonicotinic acid] | < 10 ×10⁻⁶ cm/s |  | 100% |  |  |  | 6850 nM | 12200 nM | 12200 nM | >79 µg/mL | >30 m | < 10 min |  |  |  | 2000 nM | <1 1 × 10^−6 cm/sec |  |  |
| CC1=C(C(=O)Nc2cc(C(=O)O)ccn2)C(c2ccccc2Cl)N=C(Nc2nc3ccc(C)cc3o2)N1 (stereo not drawn) [Compound 6, 2-(4-(2-chlorophenyl)-6-methyl-2-((6-methylbenzo[d]oxazol-2-yl)amino)-1,4-dihydropyrimidine-5-carboxamido)isonicotinic acid] | < 10 ×10⁻⁶ cm/s |  | 100% |  |  | 5440 nM |  | 17200 nM | 17200 nM | 34.42 µg/mL | >30 m | < 10 min |  |  |  | 6900 nM | <1 1 × 10^−6 cm/sec |  | ~7 fold |
| CC1=C(C(=O)Nc2cc(C(=O)O)ccn2)C(c2ccccc2Cl)N=C(Nc2nc3cccc(F)c3o2)N1 (stereo not drawn) [Compound 10, 2-(4-(2-chlorophenyl)-2-((7-fluorobenzo[d]oxazol-2-yl)amino)-6-methyl-1,4-dihydropyrimidine-5-carboxamido)isonicotinic acid] | < 10 ×10⁻⁶ cm/s |  | 100% |  |  |  | 1720 nM | 8630 nM | 8630 nM | >77 µg/mL | >30 m | < 10 min |  |  |  | 1000 nM | <1 1 × 10^−6 cm/sec | did not change the potency |  |
